4 compounds from patent US20220118104A1, “COMPOUNDS COMPRISING CLEAVABLE LINKER AND USES THEREOF” (IntoCell, Inc., priority 2019, published 2022) can be followed below.

One data set concerns the target T1, E. coli β-galactosidase (Escherichia coli, UniProt P00722).
T1 construct: purchased Sigma G4155
The experiment in a line: in vitro. The data set is classed as biochemical. The settings on record: PBS pH 7.4, 37° C., HPLC, read-out: TG release t1/2(min). How it is done:
Compound A-1, A-2, or B-1 was dissolved in DMSO and mixed with PBS buffer solution to prepare 500 μM stock solution (1% DMSO). Methyl phenyl sulfone (MPS, CAS Number 3112-85-4, internal standard) was dissolved in PBS buffer solution to make 500 μM solution. 790 μL of PBS buffer (pH 7.4), 10 μL of the solution of compound A-1, A-2, or B-1 (500 μM) and 200 μL of MPS solution (500 μM) were mixed. Enzyme solution (E. coli β-galactosidase, Sigma G4155, 18 μL of 1 mg/mL) was added to 882 μL of the reaction mixture. When comparing with human p-galactosidase, 116 μL of the enzyme solution (0.1 mg/mL) was added, and solutions of compound A-1, A-2, or B-1 (140 μL), MPS (140 μL), and the buffer solution (533 μL, pH 7.4) were mixed.
The reaction mixture was incubated at 37° C. The enzyme reaction solution was aliquoted at 0 min before the reaction and at a predetermined time after the reaction, wherein each aliquot was 70 μL. The remaining compound A-1, A-2, or B-1, MPS, and the material liberated by the enzyme reaction were quantitatively analyzed by HPLC.

A further data set deals with NCI-N87 cancer cells. Kind of data set: Cell cytotoxicity of conjugates (MTT), NCI-N87. The settings on record: NCI-N87, 72 hours of incubation. The data set is classed as cell-based. On the procedure:
(§1) NCI-N87, SK-BR3 cancer cells were seeded in 96-well plates at a density of 5,000 cells per well in 100 μL of medium, and cultured for 24 hours. The eight compounds obtained in Example 55 and T-DM1 were treated by serial dilutions of 1:5 from 50 nM to 0.000128 nM. After 72 hours of incubation, 0.2 mL of 3-(4,5-dimethylthiazol-2-yl)-2,5-diphenyltetrazolium bromide (MTT) dye, dissolved in PBS buffer solution (5 mg/mL), was added to each well of the plates. The formazans formed by reduction of the MTT dye by mitochondrial oxidoreductases in the living cells were dissolved in DMSO, and measured using the absorbance at 550 nm.

For the next data set, the system named is SK-BR3 cancer cells. The experiment in a line: Cell cytotoxicity of conjugates (MTT), SK-BR3. As to conditions: SK-BR3, 72 hours of incubation. The format is cell-based. On the procedure: as §1

T1 sequence (P00722 2-1024): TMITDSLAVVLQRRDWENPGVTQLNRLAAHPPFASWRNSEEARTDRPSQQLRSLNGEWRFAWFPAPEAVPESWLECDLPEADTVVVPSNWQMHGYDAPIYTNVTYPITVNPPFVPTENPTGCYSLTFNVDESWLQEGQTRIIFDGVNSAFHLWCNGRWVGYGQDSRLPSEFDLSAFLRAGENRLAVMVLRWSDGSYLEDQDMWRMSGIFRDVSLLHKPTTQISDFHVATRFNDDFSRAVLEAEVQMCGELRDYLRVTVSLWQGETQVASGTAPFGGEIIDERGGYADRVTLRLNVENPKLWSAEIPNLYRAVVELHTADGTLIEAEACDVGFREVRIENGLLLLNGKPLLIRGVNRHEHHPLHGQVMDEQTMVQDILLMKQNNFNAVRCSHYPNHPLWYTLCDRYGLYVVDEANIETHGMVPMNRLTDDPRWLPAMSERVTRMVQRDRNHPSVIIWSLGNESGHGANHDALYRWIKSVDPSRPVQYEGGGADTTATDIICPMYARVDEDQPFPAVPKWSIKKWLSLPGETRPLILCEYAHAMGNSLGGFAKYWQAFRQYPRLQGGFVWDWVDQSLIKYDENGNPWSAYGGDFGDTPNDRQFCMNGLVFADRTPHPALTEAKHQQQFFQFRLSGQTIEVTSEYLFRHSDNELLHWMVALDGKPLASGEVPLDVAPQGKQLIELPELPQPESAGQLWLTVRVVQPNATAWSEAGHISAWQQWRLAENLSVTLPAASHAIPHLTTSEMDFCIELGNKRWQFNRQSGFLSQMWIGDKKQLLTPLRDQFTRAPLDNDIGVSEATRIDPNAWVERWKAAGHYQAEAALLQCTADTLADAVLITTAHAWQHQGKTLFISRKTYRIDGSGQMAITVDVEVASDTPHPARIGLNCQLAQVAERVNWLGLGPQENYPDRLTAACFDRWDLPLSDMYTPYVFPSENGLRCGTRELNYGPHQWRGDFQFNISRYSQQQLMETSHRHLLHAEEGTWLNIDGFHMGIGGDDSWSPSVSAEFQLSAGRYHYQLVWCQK

Consider `CNC(=O)[C@H](Cc1ccc(OS(=O)(=O)Cc2ccc(OC3O[C@H](CO)[C@H](O)[C@H](O)[C@H]3O)cc2)cc1)NC(=O)OC(C)(C)C` (some centres unmarked) [Compound A-1], for which, on E. coli β-galactosidase, the half-life at 4.9 μM was under 5 min.

On to `CNC(=O)[C@H](Cc1ccc(OS(=O)(=O)Cc2ccc(OC3O[C@H](CO)[C@H](O)[C@H](O)[C@H]3O)c(C(=O)NCCOCCOCCOCCN=[N+]=[N-])c2)cc1)NC(=O)OC(C)(C)C` (some centres unmarked) [Compound A-2], for which the half-life at 4.9 μM on E. coli β-galactosidase is under 10 min.

Regarding `C[N+]1(Cc2ccc(OS(=O)(=O)Cc3ccc(OC4O[C@H](CO)[C@H](O)[C@H](O)[C@H]4O)cc3)cc2)CCCC[C@@H]1C(=O)Nc1ccccc1` (some centres unmarked) [Compound B-1], the half-life at 4.9 μM on E. coli β-galactosidase was under 5 min.

As to T-DM1, the values for the IC50 with NCI-N87 cancer cells and with SK-BR3 cancer cells were 0.766 nM and 0.042 nM, respectively.
